Where a name gives a salt, the structure may show the parent alone.
Key:
[1] = test system: ID188 patient-derived PDAC 2D line (pre-FOLFIRINOX); assay: normalised area under dose-response curve (viability relative to DMSO, 7 doses up to 10 µM) (fraction (AUC)); higher = less sensitive (more viability retained); conditions: 72 h; top dose: 10 µM
Description: (§1)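 Patient-derived 2D PDAC cells (ID188 pre-FOLFIRINOX, passage 5+27; ID211 post-FOLFIRINOX, passage 9+11), 1,500-3,000 cells/well in 96-well plates, were treated with a 415-compound Selleck library in seven concentrations (3-fold dilution series, top 10 µM) for 72 h. Viability was read by CellTiter-Glo ATP luminescence, normalised to the DMSO control, and the area under the dose-response curve was computed with the GRmetrics R package; a lower AUC means higher sensitivity.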

[2] = test system: ID211 patient-derived PDAC 2D line (post-FOLFIRINOX); assay: as above; conditions: 72 h; top dose: 10 µM
Description: as §1

SMILES: CN1CCN(c2ccc(Nc3ncc4cc(C#N)c(=O)n(C5CCCC5)c4n3)cc2)CC1
- normalised area under dose-response curve [1]: 0.98
- normalised area under dose-response curve [2]: 0.852

SMILES: C[C@H](NC(=O)Cc1cc(F)cc(F)c1)C(=O)N[C@@H]1C(=O)N(C)c2ccccc2-c2ccccc21
- normalised area under dose-response curve [1]: 0.89
- normalised area under dose-response curve [2]: 0.782

SMILES: COc1ccc(C2=N[C@@H](c3ccc(Cl)cc3)[C@@H](c3ccc(Cl)cc3)N2C(=O)N2CCNC(=O)C2)c(OC(C)C)c1 [Nutlin-3]
- normalised area under dose-response curve [1]: 0.97
- normalised area under dose-response curve [2]: 0.82

SMILES: Cc1cnc(NC(=O)Nc2cc(Br)c(C)cc2OC[C@@H]2CNCCO2)cn1
- normalised area under dose-response curve [1]: 0.731
- normalised area under dose-response curve [2]: 0.869

SMILES: CNC(=O)c1ccc2cc([C@@]3(O)CCn4cncc43)ccc2c1 [TAK-700 (Orteronel)]
- normalised area under dose-response curve [1]: 1
- normalised area under dose-response curve [2]: 0.863

SMILES: CC(C)N(C[C@H]1O[C@@H](n2cnc3c(N)ncnc32)[C@H](O)[C@@H]1O)[C@H]1C[C@@H](CCc2nc3cc(C(C)(C)C)ccc3[nH]2)C1 [Pinometostat (EPZ5676)]
- normalised area under dose-response curve [1]: 0.916
- normalised area under dose-response curve [2]: 0.8

SMILES: CN(CCNc1ccnc2cc(Cl)ccc12)CCNc1ccnc2cc(Cl)ccc12 [Lys05]
- normalised area under dose-response curve [1]: 0.921
- normalised area under dose-response curve [2]: 0.796

SMILES: O=C(Nc1cc(C(F)(F)F)ccc1N1CCCCC1)c1ccncc1 [SRPIN340]
- normalised area under dose-response curve [1]: 0.964
- normalised area under dose-response curve [2]: 0.905

SMILES: CNC(=O)c1ccc(Nc2ncc(C(F)(F)F)c(NCc3nccnc3N(C)S(C)(=O)=O)n2)cc1
- normalised area under dose-response curve [1]: 0.897
- normalised area under dose-response curve [2]: 0.761

SMILES: CCS(=O)(=O)Nc1ccc(Oc2ccc(F)cc2F)c(-c2cn(C)c(=O)c3[nH]ccc23)c1 [Mivebresib(ABBV-075)]
- normalised area under dose-response curve [1]: 0.666
- normalised area under dose-response curve [2]: 0.538

SMILES: Cc1cc2c3c([n+](C)c4ccc(F)cc4c3c1)-c1cc(F)ccc1N2C [RHPS 4 methosulfate]
- normalised area under dose-response curve [1]: 0.945
- normalised area under dose-response curve [2]: 0.906

SMILES: O=C(NCC(=O)N1CCCC1)Nc1ccc2cnccc2c1 [SGC707]
- normalised area under dose-response curve [1]: 0.955
- normalised area under dose-response curve [2]: 0.863

SMILES: CCNC(=O)C[C@@H]1N=C(c2ccc(Cl)cc2)c2cc(OC)ccc2-n2c(C)nnc21 [I-BET-762]
- normalised area under dose-response curve [1]: 0.888
- normalised area under dose-response curve [2]: 0.777

SMILES: O=C(O)C(Cc1ccccc1[N+](=O)[O-])=NNc1nc(-c2ccc(Cl)c(Cl)c2)cs1 (mixture of isomers) [4EGI-1]
- normalised area under dose-response curve [1]: 0.549
- normalised area under dose-response curve [2]: 0.889

SMILES: O=C(NCCCNc1nc(Nc2cccc(NC(=O)N3CCCC3)c2)ncc1I)c1cccs1 [BX-795]
- normalised area under dose-response curve [1]: 0.885
- normalised area under dose-response curve [2]: 0.883

SMILES: Cc1cc([C@@H](C)Nc2ccccc2C(=O)O)c2nc(N3CCOCC3)cc(=O)n2c1 [AZD6482]
- normalised area under dose-response curve [1]: 0.862
- normalised area under dose-response curve [2]: 0.835

SMILES: CC(C)(O)CNc1ncc(-c2ccnc(Nc3ccnc(Cl)c3)n2)c(CC2CC2)n1 [VPS34-IN1]
- normalised area under dose-response curve [1]: 0.949
- normalised area under dose-response curve [2]: 0.824

SMILES: COc1nc(OCc2cccc(-c3ccccc3)c2C)ccc1CNCCNC(C)=O [BMS202 (PD-1PD-L1 inhibitor 2)]
- normalised area under dose-response curve [1]: 0.99
- normalised area under dose-response curve [2]: 0.905

SMILES: COc1nc(C)cnc1NS(=O)(=O)c1cccnc1-c1ccc(-c2nnco2)cc1 [Zibotentan (ZD4054)]
- normalised area under dose-response curve [1]: 0.96
- normalised area under dose-response curve [2]: 0.955

SMILES: CC[C@H](C)n1cc(C)c2c(C(=O)NCc3c(C)cc(C)[nH]c3=O)cc(-c3ccc(N4CCNCC4)nc3)cc21 [GSK126]
- normalised area under dose-response curve [1]: 1.02
- normalised area under dose-response curve [2]: 0.95

SMILES: CCn1c(-c2nonc2N)nc2c(C#CC(C)(C)O)ncc(OC[C@H]3CCCNC3)c21
- normalised area under dose-response curve [1]: 0.83
- normalised area under dose-response curve [2]: 0.836

SMILES: C=CC(=O)Nc1cc(Nc2nccc(-c3cn(C)c4ccccc34)n2)c(OC)cc1N(C)CCN(C)C [Osimertinib (AZD9291)]
- normalised area under dose-response curve [1]: 0.855
- normalised area under dose-response curve [2]: 0.749

SMILES: O=C(NNc1nc2cc(F)ccc2n2cccc12)c1cnccn1 [SC144]
- normalised area under dose-response curve [1]: 0.795
- normalised area under dose-response curve [2]: 0.631

SMILES: CC(C)n1c(/C=C/C(O)CC(O)CC(=O)O)c(-c2ccc(F)cc2)c2ccccc21 (configuration not stated) [Fluvastatin Sodium]
- normalised area under dose-response curve [1]: 0.87
- normalised area under dose-response curve [2]: 0.807

SMILES: Cc1nc(Nc2ncc(C(=O)Nc3c(C)cccc3Cl)s2)cc(N2CCN(CCO)CC2)n1 [Dasatinib hydrochloride]
- normalised area under dose-response curve [1]: 0.377
- normalised area under dose-response curve [2]: 0.468

SMILES: O=C(O)C(=O)CBr [Bromopyruvic acid]
- normalised area under dose-response curve [1]: 0.992
- normalised area under dose-response curve [2]: 0.834

SMILES: CS(=O)(=O)CCNCc1ccc(-c2ccc3ncnc(Nc4ccc(OCc5cccc(F)c5)c(Cl)c4)c3c2)o1
- normalised area under dose-response curve [1]: 0.924
- normalised area under dose-response curve [2]: 0.614

SMILES: C[C@]1(c2nc3c(C(N)=O)cccc3[nH]2)CCCN1 [Veliparib (ABT-888)]
- normalised area under dose-response curve [1]: 0.913
- normalised area under dose-response curve [2]: 0.923

SMILES: CC(=O)O[C@H]1C(=O)[C@@]2(C)[C@H]([C@H](OC(=O)c3ccccc3)[C@]3(O)C[C@H](OC(=O)[C@H](O)[C@@H](NC(=O)c4ccccc4)c4ccccc4)C(C)=C1C3(C)C)[C@]1(OC(C)=O)CO[C@@H]1C[C@@H]2O [Paclitaxel]
- normalised area under dose-response curve [1]: 0.432
- normalised area under dose-response curve [2]: 0.444

SMILES: COc1ccc2c(c1)c(CC(=O)N1CCOCC1)c(C)n2C(=O)c1ccc(Cl)cc1 [BML-190]
- normalised area under dose-response curve [1]: 0.958
- normalised area under dose-response curve [2]: 1.01

SMILES: COCCOc1nc(-c2ccc(Cl)c(Cl)c2)n(-c2ccc(NC(=O)CCl)cc2)n1 [MI-2 (MALT1 inhibitor)]
- normalised area under dose-response curve [1]: 0.897
- normalised area under dose-response curve [2]: 0.573

SMILES: FC(F)(F)c1ccc(/C=C/c2nc(COc3ccc(CCCCn4ccnn4)cc3)co2)cc1 [Mubritinib (TAK 165)]
- normalised area under dose-response curve [1]: 0.735
- normalised area under dose-response curve [2]: 0.784

SMILES: NC1(c2ccc(-c3nc4ccn5c(=O)[nH]nc5c4cc3-c3ccccc3)cc2)CCC1 [MK-2206 2HCl]
- normalised area under dose-response curve [1]: 0.844
- normalised area under dose-response curve [2]: 0.672

SMILES: O=C([O-])C(Cl)Cl.[Na+] [Sodium dichloroacetate (DCA)]
- normalised area under dose-response curve [1]: 0.996
- normalised area under dose-response curve [2]: 0.951

SMILES: CN(c1ncccc1CNc1nc(Nc2ccc3c(c2)CC(=O)N3)ncc1C(F)(F)F)S(C)(=O)=O
- normalised area under dose-response curve [1]: 0.89
- normalised area under dose-response curve [2]: 0.795

SMILES: Cc1cc(Nc2ccc(NC(=O)c3ccc(Nc4ccnc5ccccc45)cc3)cc2)nc(N)n1 [SGI-1027]
- normalised area under dose-response curve [1]: 0.662
- normalised area under dose-response curve [2]: 0.569

SMILES: CC(C)CCn1c(CN2CCN(C(=O)C3CC3)CC2)nc2c1c(=O)n(C)c(=O)n2C [NCT-501]
- normalised area under dose-response curve [1]: 0.965
- normalised area under dose-response curve [2]: 0.822

SMILES: COc1cc(O)c(CC=C(C)C)c(O)c1C(=O)/C=C/c1ccc(O)cc1 [Xanthohumol]
- normalised area under dose-response curve [1]: 0.943
- normalised area under dose-response curve [2]: 0.926

SMILES: CN(C(=O)c1ccc(F)cc1C(F)(F)F)C1CCN(c2nnc(-c3ccnn3C)c3ccccc23)CC1
- normalised area under dose-response curve [1]: 0.939
- normalised area under dose-response curve [2]: 0.855

SMILES: Nc1nc2c(cnn2CCc2ccccc2)c2nc(-c3ccco3)nn12
- normalised area under dose-response curve [1]: 0.94
- normalised area under dose-response curve [2]: 0.905

SMILES: COCC[n+]1c2c(n(Cc3cnccn3)c1C)C(=O)c1ccccc1C2=O [YM155 (Sepantronium Bromide)]
- normalised area under dose-response curve [1]: 0.0409
- normalised area under dose-response curve [2]: 0.279

SMILES: CC(=O)c1cc2c(o1)C(=O)c1ccccc1C2=O [Napabucasin]
- normalised area under dose-response curve [1]: 0.65
- normalised area under dose-response curve [2]: 0.708

SMILES: C=CC(=O)N1C/C(=C\c2ccc([N+](=O)[O-])cc2)C(=O)/C(=C/c2ccc([N+](=O)[O-])cc2)C1 [b-AP15]
- normalised area under dose-response curve [1]: 0.504
- normalised area under dose-response curve [2]: 0.671

SMILES: CC(C)(C)c1nc(-c2cccc(NS(=O)(=O)c3c(F)cccc3F)c2F)c(-c2ccnc(N)n2)s1
- normalised area under dose-response curve [1]: 0.738
- normalised area under dose-response curve [2]: 0.932

SMILES: CCC(=O)Nc1cccc(Oc2nc(Nc3ccc(N4CCN(C)CC4)cc3OC)ncc2Cl)c1 [WZ4003]
- normalised area under dose-response curve [1]: 0.965
- normalised area under dose-response curve [2]: 0.896

SMILES: N[C@@H](Cc1ccc(N(CCCl)CCCl)cc1)C(=O)O [Melphalan]
- normalised area under dose-response curve [1]: 0.87
- normalised area under dose-response curve [2]: 0.853

SMILES: Cn1cc(-c2cnn3c(N)c(Br)c([C@@H]4CCCNC4)nc23)cn1
- normalised area under dose-response curve [1]: 0.873
- normalised area under dose-response curve [2]: 0.9

SMILES: OCc1ccc(-c2ccc(-c3ccc(CO)s3)o2)s1
- normalised area under dose-response curve [1]: 0.917
- normalised area under dose-response curve [2]: 0.896

SMILES: CCS(=O)(=O)N1CCC([C@@H](C)n2c(C)c(C(=O)NCc3c(OC)cc(C)[nH]c3=O)c3ccccc32)CC1 [CPI-169]
- normalised area under dose-response curve [1]: 0.924
- normalised area under dose-response curve [2]: 0.874

SMILES: CN1CCN(C(=O)/C=C/c2ccc([N+](=O)[O-])o2)CC1
- normalised area under dose-response curve [1]: 0.954
- normalised area under dose-response curve [2]: 0.937

SMILES: O=C(O)CC[C@H]1CC[C@@](c2cc(F)ccc2F)(S(=O)(=O)c2ccc(Cl)cc2)CC1 [MK-0752]
- normalised area under dose-response curve [1]: 0.888
- normalised area under dose-response curve [2]: 0.83

Reference: the supplement of paper PMC8988213
